Experimental data reported in US20030083315A1, “Human chymase inhibitors” (priority 2000, published 2003).

Tests used:
[1] = Blood concentration after forced oral administration into rat stomach; format: in vivo; details: SD male rat, 30 mg/kg forced into the stomach under starvation, serum, unchanged compound by HPLC; for AUC: read-out: AUC (extrapolation)
Description: By using a SD male rat, a compound having the compound number of 121, 127 or 363 was forcedly administered at a dose of 30 mg/kg into the stomach under starvation, and blood samples were taken out at 30 min, 1 hr, 2 hr, 4 hr and 8 hr after the administration. Directly after the collection of the blood samples, the serum component was separated, the compound of the present invention was extracted by a general method of solid extraction, and the obtained sample was subjected to HPLC analysis by using an ODS column to measured the amount of the unchanged compound.

[2] = molecular target: T1, recombinant human mast cell chymase (Homo sapiens, UniProt P23946); test: Inhibition of enzyme activity of recombinant human mast cell chymase; format: biochemical; details: active-type human mast cell chymase, substrate succinyl-alanyl-histidyl-prolyl-phenylalanylparanitroanilide 0.5 mM, room temperature 5 min, absorption at 405
T1 construct: made in house; host or cells: insect cell (Tn 5) infected with recombinant baculovirus
T1 sequence (P23946 22-247): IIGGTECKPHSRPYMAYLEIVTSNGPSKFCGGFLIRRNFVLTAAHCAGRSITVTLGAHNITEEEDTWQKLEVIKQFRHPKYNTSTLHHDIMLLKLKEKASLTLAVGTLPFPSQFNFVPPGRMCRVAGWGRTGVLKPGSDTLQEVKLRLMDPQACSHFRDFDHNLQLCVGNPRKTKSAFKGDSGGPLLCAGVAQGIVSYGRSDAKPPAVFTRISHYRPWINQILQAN
Description: A recombinant pro-type human mast cell chymase was prepared according to the report by Urata et al., Journal of Biological Chemistry 17173, Vol. 266 (1991). That is, the product was purified from the supernatant of the culture broth of insect cell (Tn 5) infected with a recombinant baculovirus containing a cDNA encoding a human mast cell chymase by heparin sepharose (manufactured by Pharmacia Co.). The obtained chymase was further activated according to the report of Murakami et al., Journal of Biological Chemistry, 2218, Vol. 270 (1995), and then it was purified by heparin sepharose to yield an active-type human mast cell chymase.
To 50 μl of buffer A (0.5 to 3.0 M NaCl, 50 mM tris-HCl, pH 8.0) containing 1 to 5 ng of the active-type human mast cell chymase obtained by Example 19 was added 2 μl of a DMSO solution containing a compound of the present invention, and the mixture was made to react at room temperature for 5 min after the addition of 50 μl of the buffer A containing 0.5 mM of succinyl-alanyl-histidyl-prolyl-phenylalanylparanitroanilide (Bacchem Co.) as a substrate. The inhibition activity was determined by measuring the variation of the absorption at 405 nm with the passage of time.

[3] = In vitro metabolic test using hepatic microsome (Ms); format: in vitro ADME; details: hepatic microsome 1.0 mg/mL, substrate 5.0 μM, 37° C.; for MR (maximum speed of metabolism): NADPH 1.0 mM
Description: Letting the amount of the unchanged body at the initial concentration (reaction time 0 min) 100%, the speed of metabolism is determined from the amount of the decrease of the unchanged body at each reaction time, and the maximum speed of metabolism (MR) is evaluated.
MR=(the substrate concentration at reaction time 0 min−the substance concentration after the reaction)÷reaction time÷protein concentration (nmol/min/mg-protein)

SMILES | Cmax [1] [µg/mL] | AUC [1] [µg·h/mL] | IC50 [2] [µM] | Remaining Rate (%) of Substrate at 30 min [3] [%] | MR (maximum speed of metabolism) [3] [nmol/min/mg-protein]
Cc1cc2nc(SCCCC(=O)O)n(Cc3cccc4cccc(C)c34)c2cc1C [Compound No. 493, 4-(1-((8-methyl-1-naphthyl)methyl)-5,6-dimethylbenzimidazole-2-ylthio)-butyric Acid] | – | – | 0.001 to 0.01 | – | –
COc1ccc2c(c1)nc(SCCCC(=O)O)n2Cc1cc(C)ccc1C [Compound No. 495, 4-(1-((2,5-dimethylphenil)methyl)-5-methoxybenzimidazole-2-ylthio)butyric Acid] | – | – | 0.01 to 0.1 | – | –
Cc1ccc(C)c(Cn2c(SCCCC(=O)O)nc3cc(C#N)ccc32)c1 [Compound No. 337, 4-(1-((2,5-dimethylphenyl)methyl)-5-cyanobenzimidazole-2-ylthio)butyric Acid] | – | – | 0.01 to 0.1 | – | –
Cc1cc2nc(S(=O)(=O)CCCC(=O)O)n(Cc3cccc4ccccc34)c2cc1C [Compound No. 498, 4-(1-((1-naphthyl)methyl)-5,6-dimethylbenzimidazole-2-ylsulfonyl)butyric acid] | – | – | 0.01 to 0.1 | – | –
O=C(O)CCSc1nc2ccccc2n1Cc1cccc2ccccc12 [Compound No. 496, 3-(1-((1-naphthyl)methyl)-benzimidazole-2-ylthio)propanoic acid] | – | – | 0.01 to 0.1 | – | –
Cc1cccc2cccc(Cn3c(SCCCC(=O)O)nc4ccccc43)c12 [Compound No. 492, 4-(1-((8-methyl-1-naphthyl)methyl)benzimidazole-2-ylthio)butyric Acid] | – | – | 0.001 to 0.01 | – | –
CC(C)(CC(=O)O)C(=O)CSc1nc2ccccc2n1Cc1cccc2ccccc12 [Compound No. 494, 5-(1-((1-nanhthyl)methyl)benzimidazole-2-ylthio)-4-oxo-3,3-dimethylvaleric Acid] | – | – | 0.01 to 0.1 | – | –

Second part, the compound after the results:

Cmax [1] [µg/mL] | AUC [1] [µg·h/mL] | IC50 [2] [µM] | Remaining Rate (%) of Substrate at 30 min [3] [%] | MR (maximum speed of metabolism) [3] [nmol/min/mg-protein] | SMILES
76 | 181 | 0.001 to 0.01 | 21.6 | 0.190 | COc1ccc2c(c1)nc(SCCCC(=O)O)n2Cc1cccc2ccccc12 [Compound No. 127, 4-((1-((1-naphthyl)methyl)-5-methoxybenzimidazole)-2-ylthio)butyric acid]
– | – | 0.01 to 0.1 | – | – | O=C(O)CCCSc1nc2cc(F)c(F)cc2n1Cc1cccc2ccccc12 [Compound No. 131, 4-(1-((1-naphthyl)methyl)-5,6-difluorobenzimidazole-2-ylthio)butyric acid]
– | – | 0.01 to 0.1 | – | – | O=C(O)CCCSc1nc2cc(C(F)(F)F)ccc2n1Cc1cccc2ccccc12 [Compound No. 126, 4-(1-((1-naphthyl)methyl)-5-trifluoromethylbenzimidazole-2-ylthio)butyric Acid]
– | – | 0.01 to 0.1 | – | – | CCOc1ccc2c(c1)nc(SCCCC(=O)O)n2Cc1cccc2ccccc12 [Compound No. 128, 4-(1-((1-naphthyl)methyl)-5-ethoxybenzimidazole-2-ylthio)butyric acid]
77 | 182 | 0.01 to 0.1 | 57.6 | 0.147 | N#Cc1ccc2c(c1)nc(SCCCC(=O)O)n2Cc1cccc2ccccc12 [Compound No. 363, 4-(1-((1-naphthyl)methyl)-5-cyanobenzimidazole-2-ylthio)butyric acid]
– | – | 0.01 to 0.1 | – | – | O=C(O)CCCCSc1nc2ccccc2n1Cc1cccc2ccccc12 [compound 497, 5-(1-((1-naphthyl)methyl)-benzimidazole-2-ylthio)valeric acid]
122 | 226 | 0.001 to 0.01 | 56.6 | 0.235 | O=C(O)CCCSc1nc2ccccc2n1Cc1cccc2ccccc12 [Compound No. 121, 4-(1-((1-naphthyl)methyl)benzimidazole-2-ylthio)butyric acid]
– | – | 0.001 to 0.01 | – | – | Cc1cc2nc(SCCCC(=O)O)n(Cc3cccc4ccccc34)c2cc1C [Compound No. 129, 4-(1-((1-naphthyl)methyl)-5,6-dimethylbenzimidazole-2-ylthio)butyric acid]
